{
  "source": "the supplement of paper PMC10307832",
  "test_in_all_cases": "relative viability (nuclei count vs DMSO), 5 days (fraction); higher = more cells survive",
  "key": {"NCI-H650": {"tested_on": "NCI-H650", "conditions": "first compound 20 µM", "how_it_was_run": "(§1)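 For relative viability, nuclei counts in treated wells were divided by those in vehicle wells. Lung cancer cell lines had been pin-tool dosed in 1536-well plates the day after seeding and cultured for 5 days, then fixed and stained in one step (final 0.05% Triton X-100, 1% formaldehyde, 1 ug/ml Hoechst) and imaged at 4×. Doses were one drug alone or a fixed anchor-drug dose plus five library-drug doses (not always all listed) in √10 steps, and values are duplicate-plate medians.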"}, "NCI-H1993": {"tested_on": "NCI-H1993", "how_it_was_run": "as §1"}, "NCI-H1792": {"tested_on": "NCI-H1792", "how_it_was_run": "as §1"}, "NCI-H2347": {"tested_on": "NCI-H2347", "how_it_was_run": "as §1"}, "SK-LU-1": {"tested_on": "SK-LU-1", "how_it_was_run": "as §1"}, "HCC-827": {"tested_on": "HCC-827", "how_it_was_run": "as §1"}, "NCI-H1734": {"tested_on": "NCI-H1734", "how_it_was_run": "as §1"}, "NCI-H1355": {"tested_on": "NCI-H1355", "how_it_was_run": "as §1"}, "LCLC-103H": {"tested_on": "LCLC-103H", "how_it_was_run": "as §1"}, "NCI-H1755": {"tested_on": "NCI-H1755", "how_it_was_run": "as §1"}, "SK-MES-1": {"tested_on": "SK-MES-1", "how_it_was_run": "as §1"}, "NCI-H1975": {"tested_on": "NCI-H1975", "how_it_was_run": "as §1"}},
  "data": [
    {"smiles": "Cc1csc(=NC2CCCCC2)n1/N=C/c1ccc(O)c(O)c1O", "note": "[MIM1] + N=C(N)NC(=N)NCCc1ccccc1 [Phenformin] (partner 250 µM)", "values": [
      {"measurement": "relative viability", "setting": "NCI-H650", "value": 0.241},
      {"measurement": "relative viability", "setting": "NCI-H1993; first compound 0.2 µM", "value": 0.481},
      {"measurement": "relative viability", "setting": "NCI-H1993; first compound 0.6325 µM", "value": 0.545},
      {"measurement": "relative viability", "setting": "NCI-H1993; first compound 2 µM", "value": 0.474},
      {"measurement": "relative viability", "setting": "NCI-H1993; first compound 6.325 µM", "value": 0.443},
      {"measurement": "relative viability", "setting": "NCI-H1993; first compound 20 µM", "value": 0.463},
      {"measurement": "relative viability", "setting": "NCI-H1792; first compound 0.2 µM", "value": 0.446},
      {"measurement": "relative viability", "setting": "NCI-H1792; first compound 0.6325 µM", "value": 0.401},
      {"measurement": "relative viability", "setting": "NCI-H1792; first compound 2 µM", "value": 0.322},
      {"measurement": "relative viability", "setting": "NCI-H1792; first compound 6.325 µM", "value": 0.353},
      {"measurement": "relative viability", "setting": "NCI-H1792; first compound 20 µM", "value": 0.43},
      {"measurement": "relative viability", "setting": "NCI-H2347; first compound 0.2 µM", "value": 0.435},
      {"measurement": "relative viability", "setting": "NCI-H2347; first compound 0.6325 µM", "value": 0.32},
      {"measurement": "relative viability", "setting": "NCI-H2347; first compound 2 µM", "value": 0.387},
      {"measurement": "relative viability", "setting": "NCI-H2347; first compound 6.325 µM", "value": 0.39},
      {"measurement": "relative viability", "setting": "NCI-H2347; first compound 20 µM", "value": 0.288},
      {"measurement": "relative viability", "setting": "SK-LU-1; first compound 0.2 µM", "value": 0.533},
      {"measurement": "relative viability", "setting": "SK-LU-1; first compound 0.6325 µM", "value": 0.579},
      {"measurement": "relative viability", "setting": "SK-LU-1; first compound 2 µM", "value": 0.617},
      {"measurement": "relative viability", "setting": "SK-LU-1; first compound 6.325 µM", "value": 0.405},
      {"measurement": "relative viability", "setting": "SK-LU-1; first compound 20 µM", "value": 0.393},
      {"measurement": "relative viability", "setting": "HCC-827; first compound 0.2 µM", "value": 0.412},
      {"measurement": "relative viability", "setting": "HCC-827; first compound 0.6325 µM", "value": 0.377},
      {"measurement": "relative viability", "setting": "HCC-827; first compound 2 µM", "value": 0.404},
      {"measurement": "relative viability", "setting": "HCC-827; first compound 6.325 µM", "value": 0.31},
      {"measurement": "relative viability", "setting": "HCC-827; first compound 20 µM", "value": 0.13},
      {"measurement": "relative viability", "setting": "NCI-H1734; first compound 0.2 µM", "value": 0.395},
      {"measurement": "relative viability", "setting": "NCI-H1734; first compound 0.6325 µM", "value": 0.375},
      {"measurement": "relative viability", "setting": "NCI-H1734; first compound 2 µM", "value": 0.443},
      {"measurement": "relative viability", "setting": "NCI-H1734; first compound 6.325 µM", "value": 0.35},
      {"measurement": "relative viability", "setting": "NCI-H1734; first compound 20 µM", "value": 0.179},
      {"measurement": "relative viability", "setting": "NCI-H1355; first compound 0.2 µM", "value": 0.46},
      {"measurement": "relative viability", "setting": "NCI-H1355; first compound 0.6325 µM", "value": 0.351},
      {"measurement": "relative viability", "setting": "NCI-H1355; first compound 2 µM", "value": 0.443},
      {"measurement": "relative viability", "setting": "NCI-H1355; first compound 6.325 µM", "value": 0.399},
      {"measurement": "relative viability", "setting": "NCI-H1355; first compound 20 µM", "value": 0.274},
      {"measurement": "relative viability", "setting": "LCLC-103H; first compound 0.2 µM", "value": 0.334},
      {"measurement": "relative viability", "setting": "LCLC-103H; first compound 0.6325 µM", "value": 0.297},
      {"measurement": "relative viability", "setting": "LCLC-103H; first compound 2 µM", "value": 0.354},
      {"measurement": "relative viability", "setting": "LCLC-103H; first compound 6.325 µM", "value": 0.334},
      {"measurement": "relative viability", "setting": "LCLC-103H; first compound 20 µM", "value": 0.291},
      {"measurement": "relative viability", "setting": "NCI-H1755; first compound 0.2 µM", "value": 0.596},
      {"measurement": "relative viability", "setting": "NCI-H1755; first compound 0.6325 µM", "value": 0.597},
      {"measurement": "relative viability", "setting": "NCI-H1755; first compound 2 µM", "value": 0.621},
      {"measurement": "relative viability", "setting": "NCI-H1755; first compound 6.325 µM", "value": 0.506},
      {"measurement": "relative viability", "setting": "NCI-H1755; first compound 20 µM", "value": 0.226},
      {"measurement": "relative viability", "setting": "SK-MES-1; first compound 0.2 µM", "value": 0.643},
      {"measurement": "relative viability", "setting": "SK-MES-1; first compound 0.6325 µM", "value": 0.665},
      {"measurement": "relative viability", "setting": "SK-MES-1; first compound 2 µM", "value": 0.617},
      {"measurement": "relative viability", "setting": "SK-MES-1; first compound 6.325 µM", "value": 0.484},
      {"measurement": "relative viability", "setting": "SK-MES-1; first compound 20 µM", "value": 0.41},
      {"measurement": "relative viability", "setting": "NCI-H1975; first compound 0.2 µM", "value": 0.432},
      {"measurement": "relative viability", "setting": "NCI-H1975; first compound 0.6325 µM", "value": 0.403},
      {"measurement": "relative viability", "setting": "NCI-H1975; first compound 2 µM", "value": 0.39},
      {"measurement": "relative viability", "setting": "NCI-H1975; first compound 6.325 µM", "value": 0.296},
      {"measurement": "relative viability", "setting": "NCI-H1975; first compound 20 µM", "value": 0.179}
    ]}
  ]
}
